Measurements: US8912222B2, “Method to control insects resistant to common insecticides” (priority 2006, dated 2014)
Marks after values point to notes of the source that are not given here.

Assays:
[1] = tested on: insecticide-resistant Myzus persicae strain 4013A; experiment: Leaf-disc dip bioassay on adult aphids, insecticide-resistant strain (Example IX)
Description: (§1) Activity was compared to that of commercial insecticides representing major insecticide classes.
(§2) The common name associated with Myzus persicae is the green peach aphid. […] The “US1L” strain of M. persicae was the reference strain used in these tests.
(§3) Subsequent dilutions used a 10% solution of acetone in distilled water (containing 0.01% Agral®) as the diluent.
(§4) For M. persicae bioassays, discs cut from fully expanded leaves of Chinese cabbage (Brassica rapa ssp. Pekinensis cv. Won Bok) plants were dipped into serial dilutions of insecticide, allowed to air-dry, and placed onto agar-water (1%) beds in plastic Petri-dishes. Leaf discs immersed in the diluent only were used for controls. Adults were removed from rearing boxes and, using a fine camel-hair paint brush, 10 healthy, apterous females were placed onto each treated leaf disc and each unit sealed with a close-fitting, ventilated lid. All bioassays consisted of three replicates per dose (including controls). Mortality was scored at 24, 48 and 72 h following initial exposure for all compounds and the 72 h data were used for all analyses.
(§5) Mortality data were subjected to probit analysis to derive LC50 and LC90 estimates. Resistance ratios were calculated using the following equation: […]

[2] = tested on: Myzus persicae US1L strain (susceptible); settings: probit analysis; 72 h mortality data
Description: as §1, §2, §3, §4, §5

[3] = tested on: insecticide-resistant Q-biotype Bemisia tabaci strain CHLORAKA; experiment: Leaf-disc dip bioassay on adult whiteflies, insecticide-resistant Q-biotype strain (Example IX); type: in vivo
Description: (§6) The common name associated with the Q-biotype of B. tabaci is the sweetpotato whitefly. […] The SUD-S strain of B. tabaci was the reference strain used in these tests and is a laboratory strain that is fully susceptible to all insecticide groups.
(§7) Adult B. tabaci were removed from rearing cages using a motorized aspirator and, after brief narcosis, 20-30 healthy female whiteflies were placed onto each treated leaf disc. Each unit was sealed with a close-fitting, ventilated lid. Once adults had recovered from narcosis, dishes were inverted so that the leaf disc was facing abaxial side down allowing the adult whiteflies to orient normally. All bioassays consisted of three replicates per concentration (including controls). Mortality was assessed at 48 hours after initiation of the test for the commercial standards and at 72 hours for Compounds 2, 4, and 5.
(§8) Resistance ratios were calculated using the following equation: […]

[4] = tested on: Bemisia tabaci SUD-S strain (susceptible laboratory strain); experiment: Leaf-disc dip bioassay on adult whiteflies, susceptible reference strain (Example IX); type: in vivo; settings: probit analysis; mortality at 72 hours for Compounds 2, 4, 5, 48 hours for commercial standards
Description: as §6, §7, §8

[5] = tested on: Bemisia tabaci SUD-S strain (susceptible laboratory strain); experiment: Leaf-disc dip bioassay on adult whiteflies, susceptible reference strain (Example VII); type: in vivo
Procedure: (§9) The activity of commercial, neonicotinoid insecticides was also assessed and served as the basis for comparisons of relative efficacy on this insecticide-resistant whitefly strain.
as §6
(§10) Technical samples of Compounds 6 and 7 were initially dissolved in 90% acetone in distilled water (containing 0.01% Agral) to obtain 5000 ppm stock solutions. […] Commercial formulations of imidacloprid (Confidor, 200SL), thiamethoxam (Actara, 25WG) and acetamiprid (Mospilan, 20SP) were diluted using distilled water containing 0.01% Agral.
as §7, with “6” for “2, 4,”, “7.” for “5.”
(§11) Compounds 6, 7 and the commercial neonicotinoid insecticides imidacloprid, thiamethoxam and acetamiprid were tested in discriminating concentration bioassays against both whitefly strains. More extensive concentration-response bioassays against both whitefly strains were conducted for Compounds 6, 7 and imidacloprid. […] Resistance ratios were calculated using the following equation: […]

[6] = tested on: insecticide-resistant Q-biotype Bemisia tabaci strain CHLORAKA; experiment: Leaf-disc dip bioassay on adult whiteflies, neonicotinoid-resistant Q-biotype strain (Example VII); type: in vivo
Procedure: as §9, §6, §10
as §7, with “6” for “2, 4,”, “7.” for “5.”
as §11

[7] = tested on: insecticide-resistant B-biotype Bemisia tabaci strain GUA-MIX; experiment: Leaf-disc dip bioassay on adult whiteflies, neonicotinoid-resistant B-biotype strain (Example VIII); type: in vivo
Procedure: (§12) The insecticidal activity of Compound 7 on adults from an insecticide-resistant, B-biotype Bemisia tabaci strain was assessed. The activity of commercial, neonicotinoid insecticides was also assessed and served as the basis for comparisons of relative efficacy on this insecticide-resistant whitefly strain.
(§13) The common name associated with the B-biotype of B. tabaci is the silverleaf whitefly. The strain used in these tests, “GUA-MIX”, was collected from a variety of crops situated in the Zacapa Valley of Guatemala in January of 2004. […] The SUD-S strain of B. tabaci was the reference strain used in these tests and is a laboratory strain that is fully susceptible to all insecticide groups.
(§14) A technical sample of Compound 7 was initially dissolved in 90% acetone in distilled water (containing 0.01% Agral) to obtain a 5000 ppm stock solution. […] Commercial formulations of imidacloprid (Confidor, 200SL), thiamethoxam (Actara, 25WG) and acetamiprid (Mospilan, 20SP) were diluted using distilled water containing 0.01% Agral.
as §7, with “Compound 7.” for “Compounds 2, 4, and 5.”
(§15) Compound 7 and the commercial neonicotinoid insecticides imidacloprid, thiamethoxam and acetamiprid were tested in discriminating concentration bioassays against both whitefly strains. More extensive concentration-response bioassays against both whitefly strains were conducted for Compound 7 and imidacloprid. […] Resistance ratios were calculated using the following equation: […]

[8] = tested on: field-collected populations of the whitefly, Bemisia tabaci; settings: field-collected B. tabaci strains, late 1990s onward; literature; cited from earlier work
[9] = tested on: Bemisia tabaci SUD-S strain (susceptible laboratory strain); experiment: Leaf-disc dip bioassay on adult whiteflies, susceptible reference strain (Example VIII); type: in vivo
Procedure: as §12, §13, §14
as §7, with “Compound 7.” for “Compounds 2, 4, and 5.”
as §15

[10] = Bemisia tabaci, 48 h, read-out: Mortality, S Strain (SUD-S)
[11] = probit analysis, mortality at 72 hours for Compounds 6 and 7, 48 hours for commercial standard
[12] = Bemisia tabaci, 48 h, read-out: Mortality, R Strain (CHLORAKA)
[13] = Bemisia tabaci, 48 h, read-out: Mortality, R Strain (GUA-MIX)
[14] = probit analysis, mortality at 72 hours for Compound 7, 48 hours for commercial standard

O=[N+]([O-])NC1=NCCN1Cc1ccc(Cl)nc1 [Imidacloprid, imidacloprid]
Resistance Ratio ([1]; 4013A (R) vs US1L (S) LC50): 17 | LC50, R strain (4013A) ([1]; probit analysis, 72 h mortality data): 15.3 ppm | LC50, S strain (US1L) [2]: 0.9 ppm | Resistance Ratio ([3]; CHLORAKA (R) vs SUD-S (S) LC50): >800** | effect of exposure on adults of the CHLORAKA strain ([3]; imidacloprid at 1000 ppm): largely unaffected | LC50, R strain (CHLORAKA) ([3]; probit analysis, mortality at 72 hours for Compounds 2, 4, 5, 48 hours for commercial standards): >1000 ppm | LC50, S strain (SUD-S) [4]: 1.2 ppm | mortality at 32 ppm [5, 10]: 83% | mortality at 128 ppm [5, 10]: 95% | LC50, S strain (SUD-S) [5, 11]: 4.3 ppm | mortality at 32 ppm [6, 12]: 2% | mortality at 128 ppm [6, 12]: 2% | mortality at 4096 ppm [6, 12]: 25% | Resistance Ratio ([6]; CHLORAKA (R) vs SUD-S (S) LC50): >930** | effect of exposure on adults of the CHLORAKA strain ([6]; imidacloprid at 1000 ppm): largely unaffected | LC50, R strain (CHLORAKA) [6, 11]: >4000 ppm | mortality at 32 ppm [7, 13]: 8% | mortality at 128 ppm [7, 13]: 39% | mortality at 2048 ppm [7, 13]: 49% | Resistance Ratio ([7]; GUA-MIX (R) vs SUD-S (S) LC50): >45.5** | effect on the majority of adults of the GUA-MIX strain ([7]; imidacloprid concentrations of 1000 ppm): largely unaffected | LC50, R strain (GUA-MIX) [7, 14]: >500.0 ppm | resistance of more recently-collected whitefly strains [8]: more than 100 fold | mortality at 32 ppm [9, 10]: 74% | mortality at 128 ppm [9, 10]: 87% | LC50, S strain (SUD-S) [9, 14]: 11.2 ppm
